Patent US20070099855A1 (priority 2003, published 2007)

Test system: SARS-associated coronavirus
Assay: organism not typed
Assay type: cell-based
Conditions: for EC50: Vero
[1] = Vero cell cultures, cytopathic effect scored 72-96 h after infection, mean of eight assays
[2] = Vero cell cultures, tested as in Example 1

| SMILES | effect on replication of the SARS-associated coronaviruses (Vero cells) | Therap. IndexI (Vero cells) | EC50 [2] [µM] | other results |
| --- | --- | --- | --- | --- |
| NC(=O)c1[nH]nc([C@@H]2O[C@H](CO)[C@@H](O)[C@H]2O)c1O [Pyrazofurin] | inhibited replication of SARS-CV at non-toxic doses |  |  | Selectivity Index (ratio CC50/EC50, Vero cells): 12 |
| COc1c(C)c2c(c(O)c1C/C=C(\C)CCC(=O)O)C(=O)OC2 [Mycophenolic acid] | did not affect replication |  |  | EC50 [1]: > 50 mg/L |
| COC(=O)[C@@]1(C)CC[C@]2(C)CC[C@]3(C)C(=CC(=O)C4[C@@]5(C)CCC(OC6OC(CO)C(O)C(O)C6OC6OC(CO)C(O)C(O)C6O)C(C)(C)C5CC[C@]43C)C2C1 (some centres unmarked) [Compound 8] |  | 6 | 8 |  |
| CC1(C)C(OC2OC(C(=O)O)C(O)C(O)C2OC2OC(C(=O)O)C(O)C(O)C2O)CC[C@]2(C)[C@H]3C(=O)C=C4[C@@H]5C[C@@](C)(C(=O)O)CC[C@]5(C)CC[C@@]4(C)[C@]3(C)CC[C@@H]12 (stereo partly drawn) [Glycyrrhizin, (3-beta,20-beta)-20-Carboxy-11-oxo-30-norolean-12-en-3-yl 2-O-beta-D-glucopyranuronosyl-alpha-D-glucopyranosiduronic acid] |  |  |  | EC50 (compound added after virus adsorption, Vero cells): 600 mg/L; EC50 (compound added during and after virus adsorption, Vero cells): 300 mg/L; EC50 (compound added during virus adsorption, Vero cells): 2400 mg/L; Selectivity Index (after virus adsorption, CC50/EC50): >33; Selectivity Index (during and after virus adsorption, CC50/EC50): >67 |
| NC(=O)c1ncn([C@@H]2O[C@H](CO)[C@@H](O)[C@H]2O)n1 [Ribavirin] | did not affect replication |  |  | EC50 [1]: > 1000 mg/L |
| CC1(C)C(OC2OC(C(=O)O)C(O)C(O)C2OC2OC(C(=O)O)C(O)C(O)C2O)CC[C@@]2(C)C1CC[C@]1(C)C2C(=O)C=C2C3C[C@@](C)(C(=O)O)CC[C@]3(C)CC[C@]21C.N (some centres unmarked) [Glycyrrhizin Monoammonium Salt] |  | 2 | 327 |  |
| COC(=O)[C@@]1(C)CC[C@]2(C)CC[C@]3(C)C(=CC(=O)C4[C@@]5(C)CCC(OC6OC(C(=O)NN)C(O)C(O)C6OC6OC(C(=O)NN)C(O)C(O)C6O)C(C)(C)C5CC[C@]43C)C2C1 (some centres unmarked) [Compound 7] |  | 4 | 16 |  |
| O=c1cnn([C@@H]2O[C@H](CO)[C@@H](O)[C@H]2O)c(=O)[nH]1 [Compound 6-azauridine, 6-azauridine] | inhibited replication of SARS-CV at non-toxic doses |  |  | Selectivity Index (ratio CC50/EC50, Vero cells): 6; Selectivity Index (ratio CC50/EC50, Vero cells, listed as 6-azuridine): 5 |
